The source made the active and inactive calls. The rule behind the calls is not given here.
What was measured:
[1] = tested on: Mus musculus; assay: Anxiolytic activity in Mus musculus Swiss albino (mouse) assessed as increase in time spent in open arms at 2 mg/kg, po administered 1 hr prior to testing measured for 5 min by plus-maze test (reference value: 23 +/- 1.63 secs); assay type: functional
[2] = tested on: Mus musculus; assay: Anxiolytic activity in Mus musculus Swiss albino (mouse) assessed as time spent in neutral zone at 2 mg/kg, po administered 1 hr prior to testing measured for 5 min by plus-maze test (reference value: 70 +/- 5.63 secs); assay type: functional
[3] = tested on: Mus musculus; assay: Anxiolytic activity in Mus musculus Swiss albino (mouse) assessed as increase in time spent in light zone at 2 mg/kg, po administered 1 hr prior to testing measured for 5 min by light-dark test (reference value: 64 +/- 4.02 secs); assay type: functional
[4] = tested on: Mus musculus; assay: Anxiolytic activity in Mus musculus Swiss albino (mouse) assessed as increase in ambulation at 2 mg/kg, po administered 45 min prior to testing measured for 5 min by open-field test relative to control; assay type: functional, organism-based; design: dose 2 mg/kg
[5] = tested on: Mus musculus; assay: Anxiolytic activity in Mus musculus Swiss albino (mouse) assessed as decrease in immobility duration at 2 mg/kg, po administered 1 hr prior to testing measured for 5 min by light-dark test relative to control; assay type: functional, organism-based; design: dose 2 mg/kg
[6] = tested on: Mus musculus; assay: Anxiolytic activity in Mus musculus Swiss albino (mouse) assessed as increase in time spent in light zone at 10 mg/kg, po administered 1 hr prior to testing measured for 5 min by light-dark test (reference value: 64 +/- 4.02 secs); assay type: functional
[7] = tested on: Mus musculus; assay: Anxiolytic activity in Mus musculus Swiss albino (mouse) assessed as increase in time spent in light zone at 30 mg/kg, po administered 1 hr prior to testing measured for 5 min by light-dark test (reference value: 64 +/- 4.02 secs); assay type: functional
[8] = tested on: Mus musculus; assay: Anxiolytic activity in Mus musculus Swiss albino (mouse) assessed as increase in ambulation at 200 to 400 mg/kg, po administered 45 min prior to testing measured for 5 min by open-field test relative to control; assay type: functional, organism-based
[9] = tested on: Mus musculus; assay: Anxiolytic activity in Mus musculus Swiss albino (mouse) assessed as increase in ambulation at 100 mg/kg, po administered 45 min prior to testing measured for 5 min by open-field test relative to control; assay type: functional, organism-based; design: dose 100 mg/kg
[10] = tested on: Mus musculus; assay: Anxiolytic activity in Mus musculus Swiss albino (mouse) assessed as time spent in neutral zone at 10 mg/kg, po administered 1 hr prior to testing measured for 5 min by plus-maze test (reference value: 70 +/- 5.63 secs); assay type: functional
[11] = tested on: Mus musculus; assay: Anxiolytic activity in Mus musculus Swiss albino (mouse) assessed as time spent in neutral zone at 100 mg/kg, po administered 1 hr prior to testing measured for 5 min by plus-maze test (reference value: 70 +/- 5.63 secs); assay type: functional
[12] = tested on: Mus musculus; assay: Anxiolytic activity in Mus musculus Swiss albino (mouse) assessed as time spent in neutral zone at 30 mg/kg, po administered 1 hr prior to testing measured for 5 min by plus-maze test (reference value: 70 +/- 5.63 secs); assay type: functional
[13] = tested on: Mus musculus; assay: Anxiolytic activity in Mus musculus Swiss albino (mouse) assessed as increase in time spent in open arms at 100 mg/kg, po administered 1 hr prior to testing measured for 5 min by plus-maze test (reference value: 23 +/- 1.63 secs); assay type: functional
[14] = tested on: Mus musculus; assay: Anxiolytic activity in Mus musculus Swiss albino (mouse) assessed as increase in time spent in open arms at 30 mg/kg, po administered 1 hr prior to testing measured for 5 min by plus-maze test (reference value: 23 +/- 1.63 secs); assay type: functional
[15] = tested on: Mus musculus; assay: Anxiolytic activity in Mus musculus Swiss albino (mouse) assessed as increase in time spent in light zone at 100 mg/kg, po administered 1 hr prior to testing measured for 5 min by light-dark test (reference value: 64 +/- 4.02 secs); assay type: functional
[16] = tested on: Mus musculus; assay: Anxiolytic activity in Mus musculus Swiss albino (mouse) assessed as increase in time spent in open arms at 10 mg/kg, po administered 1 hr prior to testing measured for 5 min by plus-maze test (reference value: 23 +/- 1.63 secs); assay type: functional

Compound	Time [1] [s]	Time [2] [s]	Time [3] [s]	Activity [4]	Activity [5]	Time [6] [s]	Time [7] [s]	Activity [8]	Activity [9]	Time [10] [s]	Time [11] [s]	Time [12] [s]	Time [13] [s]	Time [14] [s]	Time [15] [s]	Time [16] [s]
CN1C(=O)CN=C(c2ccccc2)c2cc(Cl)ccc21 [DIAZEPAM]	166	32	171	Active	–	–	–	–	–	–	–	–	–	–	–	–
COc1ccc(C2=C(c3ccc(OC)c(OC)c3)C(=O)OC2=O)cc1OC	–	–	–	–	Active	95	120	inactive	Active	65	29	45	151	110	145	66
